Experimental data: US8314143B2, “Synthetic flavonoids and pharmaceutical compositions and therapeutic methods of treatment of HIV infection and other pathologies” (Florida A&M University, priority 2006, dated 2012)
Values joined by “and” are separate entries in the source; they are usually repeats but may differ in a detail not shown here. Equal entries are not always repeated. “Also recorded” adds a separate entry of the source.

Tests used:
Format in all cases: cell-based
MCF-7 cells = assay: Cytoxicity on MCF-7 cells (drug inhibition, cell count); parameters: Drug Inhibition on MCF-7 Cells / MCF-7 Mean (drug inhibition) / Drug inhibition on MCF-7 Cells Mean: unit not given here; details: MCF-7 cells; for Drug Inhibition on MCF-7 Cells: Table 8 summary
Source text: (§1) The purified and identified analogs were subjected to in vitro biological testing. […] These three congeners were further evaluated in H9 and PC3 cells. AZT was employed as a positive control in all of these experiments.

H-9 cells = assay: Cytoxicity on H-9 cells (drug inhibition, cell count); details: for H-9 Mean (drug inhibition): Table 4 summary; for % Inhibition Mean / Cells (×10^4) Mean / % Inhibition / Cells (×10^4): Exp. Dec. 05 to Dec. 09, 2005; for % Inhibition / Cells (×10^4): single replicates
Source text: as §1

PC-3 cells = assay: Cytoxicity on PC-3 cells (drug inhibition, cell count); details: for Drug Inhibition on PC-3 cells: Table 7; for % Inhibition Mean / Cells (×10^4) Mean / % Inhibition / Cells (×10^4): Exp. Nov. 11 to Nov. 17, 2005; for % Inhibition / Cells (×10^4): single replicates
Source text: The purified and identified analogs were subjected to in vitro biological testing.

[1] = 1 μg/ml, mean, Exp. Nov. 14 to Nov. 18, 2005
[2] = 1 μg/ml, single replicates, Exp. Nov. 14 to Nov. 18, 2005
[3] = 5 μg/ml, mean, Exp. Nov. 14 to Nov. 18, 2005
[4] = 5 μg/ml, single replicates, Exp. Nov. 14 to Nov. 18, 2005
[5] = 10 μg/ml, mean, Exp. Nov. 14 to Nov. 18, 2005
[6] = 10 μg/ml, single replicates, Exp. Nov. 14 to Nov. 18, 2005
[7] = 50 μg/ml, mean, Exp. Nov. 14 to Nov. 18, 2005
[8] = 50 μg/ml, single replicates, Exp. Nov. 14 to Nov. 18, 2005

COc1ccc(C=CC(=O)c2cc(Cl)cc(Cl)c2O)cc1OC [CHCl 2M]
response to MCF-7 cells in the different drug concentrations (MCF-7 cells): good activities | Drug Inhibition on MCF-7 Cells (MCF-7 cells; 1 μg/ml): 14.55 | % Inhibition Mean (MCF-7 cells; [1]): 14.55% | Cells (×10^4) Mean (MCF-7 cells; [1]): 49.42 ×10^4 | % Inhibition (MCF-7 cells; [2]): 13.98% and 16.14% and 13.54% | Cells (×10^4) (MCF-7 cells; [2]): 49.8 ×10^4 and 48.5 ×10^4 and 50.0 ×10^4 | Drug Inhibition on MCF-7 Cells (MCF-7 cells; 5 μg/ml): 44.09 | % Inhibition Mean (MCF-7 cells; [3]): 44.09% | Cells (×10^4) Mean (MCF-7 cells; [3]): 32.33 ×10^4 | % Inhibition (MCF-7 cells; [4]): 44.67% and 45.53% and 42.07% | Cells (×10^4) (MCF-7 cells; [4]): 32.0 ×10^4 and 31.5 ×10^4 and 33.5 ×10^4 | Drug Inhibition on MCF-7 Cells (MCF-7 cells; 10 μg/ml): 81.99 | % Inhibition Mean (MCF-7 cells; [5]): 81.99% | Cells (×10^4) Mean (MCF-7 cells; [5]): 10.42 ×10^4 | % Inhibition (MCF-7 cells; [6]): 82.71% and 81.41% and 81.84% | Cells (×10^4) (MCF-7 cells; [6]): 10.0 ×10^4 and 10.8 ×10^4 and 10.5 ×10^4 | Drug Inhibition on MCF-7 Cells (MCF-7 cells; 50 μg/ml): 98.70 | % Inhibition Mean (MCF-7 cells; [7]): 98.70% | Cells (×10^4) Mean (MCF-7 cells; [7]): 0.75 ×10^4 | % Inhibition (MCF-7 cells; [8]): 98.27% and 99.14% and 98.70% | Cells (×10^4) (MCF-7 cells; [8]): 1.0 ×10^4 and 0.5 ×10^4 and 0.8 ×10^4 | inhibitory activity compared to AZT (MCF-7 cells; same conditions as AZT): much superior inhibitory activities; also recorded: as good or somewhat better | H-9 Mean (drug inhibition) (H-9 cells; 1 μg/ml): 15.92 | % Inhibition Mean (H-9 cells; 1 μg/ml): 15.92% | Cells (×10^4) Mean (H-9 cells; 1 μg/ml): 42.25 ×10^4 | % Inhibition (H-9 cells; 1 μg/ml): 16.42% and 15.92% and 15.42% | Cells (×10^4) (H-9 cells; 1 μg/ml): 42.0 ×10^4 and 42.3 ×10^4 and 42.6 ×10^4 | H-9 Mean (drug inhibition) (H-9 cells; 5 μg/ml): 52.24 | % Inhibition Mean (H-9 cells; 5 μg/ml): 52.24% | Cells (×10^4) Mean (H-9 cells; 5 μg/ml): 24.00 ×10^4 | % Inhibition (H-9 cells; 5 μg/ml): 52.24% and 52.74% and 51.74% | Cells (×10^4) (H-9 cells; 5 μg/ml): 24.0 ×10^4 and 23.8 ×10^4 and 24.3 ×10^4 | H-9 Mean (drug inhibition) (H-9 cells; 10 μg/ml): 74.3 | % Inhibition Mean (H-9 cells; 10 μg/ml): 74.30% | Cells (×10^4) Mean (H-9 cells; 10 μg/ml): 12.92 ×10^4 | % Inhibition (H-9 cells; 10 μg/ml): 74.13% and 77.11% and 71.64% | Cells (×10^4) (H-9 cells; 10 μg/ml): 13.0 ×10^4 and 11.5 ×10^4 and 14.3 ×10^4 | H-9 Mean (drug inhibition) (H-9 cells; 50 μg/ml): 91.04 | % Inhibition Mean (H-9 cells; 50 μg/ml): 91.04% | Cells (×10^4) Mean (H-9 cells; 50 μg/ml): 4.50 ×10^4 | % Inhibition (H-9 cells; 50 μg/ml): 92.04% and 91.04% and 90.05% | Cells (×10^4) (H-9 cells; 50 μg/ml): 4.0 ×10^4 and 4.5 ×10^4 and 5.0 ×10^4 | inhibitory activity compared to AZT (H-9 cells; same conditions as AZT): much superior inhibitory activities; also recorded: as good or somewhat better | Drug Inhibition on PC-3 cells (PC-3 cells; 1 μg/ml): 42.4 | % Inhibition Mean (PC-3 cells; 1 μg/ml): 25.09% | Cells (×10^4) Mean (PC-3 cells; 1 μg/ml): 73.42 ×10^4 | % Inhibition (PC-3 cells; 1 μg/ml): 24.23% and 24.49% and 26.53% | Cells (×10^4) (PC-3 cells; 1 μg/ml): 74.3 ×10^4 and 74.0 ×10^4 and 72.0 ×10^4 | Drug Inhibition on PC-3 cells (PC-3 cells; 5 μg/ml): 73.76 | % Inhibition Mean (PC-3 cells; 5 μg/ml): 28.57% | Cells (×10^4) Mean (PC-3 cells; 5 μg/ml): 70.00 ×10^4 | % Inhibition (PC-3 cells; 5 μg/ml): 29.59% and 29.08% and 27.04% | Cells (×10^4) (PC-3 cells; 5 μg/ml): 69.0 ×10^4 and 69.5 ×10^4 and 71.5 ×10^4 | Drug Inhibition on PC-3 cells (PC-3 cells; 10 μg/ml): 87.02 | % Inhibition Mean (PC-3 cells; 10 μg/ml): 29.00% | Cells (×10^4) Mean (PC-3 cells; 10 μg/ml): 69.58 ×10^4 | % Inhibition (PC-3 cells; 10 μg/ml): 30.61% and 28.57% and 27.81% | Drug Inhibition on PC-3 cells (PC-3 cells; 50 μg/ml): 96.96 | % Inhibition Mean (PC-3 cells; 50 μg/ml): 36.65% | Cells (×10^4) Mean (PC-3 cells; 50 μg/ml): 62.08 ×10^4 | % Inhibition (PC-3 cells; 50 μg/ml): 31.88% and 33.16% and 45.41% | Cells (×10^4) (PC-3 cells; 50 μg/ml): 67.3 ×10^4 and 65.5 ×10^4 and 53.5 ×10^4 | inhibitory activity compared to AZT (PC-3 cells; same conditions as AZT): much superior inhibitory activities; also recorded: as good or somewhat better

COc1cc(C=CC(=O)c2cc(Cl)cc(Cl)c2O)cc(OC)c1OC [CHCl 3M]
Cells (×10^4) Mean (MCF-7 cells; drug 1 μg/ml, mean of replicates): 53.17 ×10^4 | % Inhibition Mean (MCF-7 cells; drug 1 μg/ml, mean of replicates, vs 2% DMSO): −4.42% | Cells (×10^4) (MCF-7 cells; drug 1 μg/ml, single replicate count): 54.0 ×10^4 and 54.3 ×10^4 and 51.3 ×10^4 | % Inhibition (MCF-7 cells; drug 1 μg/ml, single replicate, vs 2% DMSO): −6.06% and −6.55% and −0.65% | Cells (×10^4) Mean (MCF-7 cells; drug 5 μg/ml, mean of replicates): 52.75 ×10^4 | % Inhibition Mean (MCF-7 cells; drug 5 μg/ml, mean of replicates, vs 2% DMSO): −3.6% | Cells (×10^4) (MCF-7 cells; drug 5 μg/ml, single replicate count): 53.8 ×10^4 and 51.5 ×10^4 and 50.0 ×10^4 | % Inhibition (MCF-7 cells; drug 5 μg/ml, single replicate, vs 2% DMSO): −5.56% and −1.15% and −4.09% | Cells (×10^4) Mean (MCF-7 cells; drug 10 μg/ml, mean of replicates): 43.75 ×10^4 | % Inhibition Mean (MCF-7 cells; drug 10 μg/ml, mean of replicates, vs 2% DMSO): 14.08% | Cells (×10^4) (MCF-7 cells; drug 10 μg/ml, single replicate count): 42.5 ×10^4 and 43.3 ×10^4 and 45.5 ×10^4 | % Inhibition (MCF-7 cells; drug 10 μg/ml, single replicate, vs 2% DMSO): 16.53% and 15.06% and 10.64% | Cells (×10^4) Mean (MCF-7 cells; drug 50 μg/ml, mean of replicates): 31.50 ×10^4 | % Inhibition Mean (MCF-7 cells; drug 50 μg/ml, mean of replicates, vs 2% DMSO): 38.13% | Cells (×10^4) (MCF-7 cells; drug 50 μg/ml, single replicate count): 32.0 ×10^4 and 32.8 ×10^4 and 29.8 ×10^4 | % Inhibition (MCF-7 cells; drug 50 μg/ml, single replicate, vs 2% DMSO): 37.15% and 35.68% and 41.57%
